Assay results as given in patent publication US10647680B2, “Urea compound, preparation method therefor and medical use thereof” (Ancureall Pharmaceutical (Shanghai) Co., Ltd., priority 2016, dated 2020).
Where two headings read alike, the source gives them in different places.

Tests used:
P-gp = test: Bidirectional transmembrane transport and P-gp efflux in Caco-2 monolayer cell model; type: in vitro ADME; conditions: human, Caco-2, pH 7.4; Concentration 10, Inhibitor − (without P-gp inhibitor GF120918); read-out: Efflux Ratio Papp (B→A)/Papp (A→B)
Procedure: (§1) The Caco-2 cell transport experiment was performed using compound 77 of the present invention as a representative example.
(§2) Main procedure: Caco-2 cells (ATCC, HTB-37) were cultured in high-glucose DMEM culture medium (Hyclone) containing 10% fetal calf serum (GIBCO) and penicillin-streptomycin (100 units/mL each) (Sigma). Cells were cultured at 37° C. in an incubator containing 5% CO2. In the transport experiment, Caco-2 cells were inoculated on a filter of a 12-well Transwell plate at a density of 2×10^5 cells/well (Coming Costar, catalog #3401, 1.12 cm^2, 0.4 um of pore size). After inoculation, the Caco-2 cells would form intact cell monolayers after 21 days, including P-gp efflux transporter expression and transepithelial cell resistance (TEER) formation. During the period, the culture medium was replaced once every other day. The volume of culture medium at the transwell membrane Apical Side (A) and Basolateral Side (B) were 0.5 mL and 1.5 mL, respectively. Before the transport experiment (day 21), the preheated HBSS buffer (137 mM NaCl, 4.17 mM NaHCO3, 0.34 mM Na2HPO4, 5.37 mM KCl, 0.44 mM KH2PO4, 1.26 mM CaCl2, 0.49 mM MgCl2, 0.41 mM MgSO4, 5.55 Mm D-Glucose, 10 mM HEPES, pH 7.4) was used firstly to wash Caco-2 cell monolayers for three times, and placed to at 37° C. for incubation for 30 minutes, then TEER values were determined using a cell resistometer (Millicell-ERS2) to confirm the integrity and compactness of the cell monolayers. When the HBSS buffer solution on the transmembrane A-side or B-side was replaced with the test compound, the transport experiment was started.
(§3) Finally, after incubation at 37° C. for 2 hours, the transport experiment was terminated and 50 uL of sample solution was taken from both sides of the Transwell filter membrane separately and added to 100 μL of acetonitrile comprising internal standard compound and mixed well, then centrifuged at 13000 rpm, 4° C. for 10 min, and finally 10 μL (or a specific volume) of supernatant was used for LC-MS/MS sample analysis.
(§4) For each compound, transport experiments in the A-B and B-A directions had three replicates, i.e. n=3.
(§5) LC-MS/MS Sample Analysis: The high performance liquid chromatography (HPLC) system used in this research consisted of two pumps (Shimadzu LC-20AD) and an autosampler (Shimadzu SIL-20AC). The HPLC system was connected in series with an API 4000 triple quadrupole mass spectrometer (Applied Biosystems). The API 4000 triple quadrupole mass spectrometer was equipped with an electrospray ionization (ESI) source. Ultrapurified nitrogen was used as curtain gas, GAS1, GAS2, and collision gas, at flow rates of 20 L/h, 55 L/h, 65 L/h, and 6 L/hr, respectively. The atomization temperature of the ion source was set to 500° C. Data was collected using the software Analyst 1.5.
(§6) Data analysis: The apparent permeability coefficient (Papp) can be calculated by the rate at which a compound permeates the monolayer of Caco-2 cells. Its value is related to the absorption of the compound in vivo. After concentrations at A side and B side were determined by LC-MS/MS, the Papp value in the A-B or B-A direction was calculated according to the following formula: Papp(A→B) or Papp(B→A)=(dQ/dt)/(A*C0)=(C2h*V)/(t*π2*C0)
(§7) In the above formula, dQ/dt is the permeation rate, i.e. the amount of compound that permeated in the dt time, C0 is the initial concentration of drug on the administration side, and A is the surface area of the cell monolayer, i.e. the membrane area.
(§8) After obtaining the Papp (A→B) and Papp (B→A) values of the compound, the Efflux Ratio (ER) of the compound could be calculated by the following formula: Efflux Ratio(ER)=Papp(B−A)/Papp(A−B).
(§9) When the ratio of efflux was >2, the compound could be considered as the substrate of the efflux transporter.

[1] = as above; type: in vitro ADME; conditions: human
Procedure: as §1, §2, §3, §4, §5, §6, §7, §8, §9

Compound: COCCOc1ccc2c(c1)ncn2-c1ccc(NC(=O)Nc2cc(C(C)(C)C)n[nH]2)cc1 [Compound 77, 1-(5-tert-butyl-2H-pyrazol-3-yl)-3-{4-[5-(2-methoxyl-ethoxyl)-benzimidazol-1-yl]-phenyl}-urea]
- efflux ratio at 2 h (P-gp): 5.8
- Papp A→B at 2 h ([1]; Caco-2, pH 7.4, Caco-2 monolayer cell model, transmembrane permeability, read-out: Papp(A→B) value (conclusions under the table)): 1 to 10 ×10⁻⁶ cm/s
- Papp B→A at 2 h ([1]; Caco-2, pH 7.4, Concentration 10, Inhibitor − (without P-gp inhibitor GF120918)): 13.1 ×10⁻⁶ cm/s
- Papp A→B at 2 h ([1]; Caco-2, pH 7.4, Concentration 10, Inhibitor − (without P-gp inhibitor GF120918), read-out: Papp (A→B)): 2.24 ×10⁻⁶ cm/s
